Results as given in patent publication US6228872A, “Neurotrophic diamide and carbamate agents” (Bristol-Myers Squibb Company, priority 1999, dated 2001).
Where two headings read alike, the source gives them in different places.

How the values were obtained:
FKBP12 = FKBP12 (Homo sapiens, UniProt P62942); experiment: FKBP12 Rotamase Inhibition Assay; assay type: biochemical; details: for inhibition at 10 µM: read-out: % inhib. at 10 μM; for Ki: apparent Ki, 4° C., substrate succinyl-Ala-Leu-Pro-Phe-p-nitroanilide
Description: FKBP12 Rotamase Inhibition Assay
The rotamase activity of FKBP-12 was measured by an adaptation of the assay described by Kofron et al. (Biochemistry, 30, pp. 6127-6134 (1991)). The assay was carried out at 4° C. with 1 mg chymotrypsin/mL of assay with succinyl-Ala-Leu-Pro-Phe-p-nitroanilide as the substrate. Chymotrypsin rapidly hydrolyzes the peptide bond on the C-terminal side of the Phe of the trans form of the peptide and releases the chromogenic p-nitroaniline. The rate of the reaction is controlled by the rate of conversion of the cis form of the peptide to the trans-form, the reaction catalyzed by FKBP12. The apparent Ki values for inhibition of the rotamase activity were determined by measuring decreases in the first order rate constant of the reaction catalyzed by FKBP12 as a function of the concentrations of the compounds described herein. Ki is the concentration of the compound that causes 50 percent inhibition of rotamase activity which is indicative of neurite outgrowth activity.

[1] = in vitro and in vivo; cited from earlier work
HIV-infected cells = details: cited from earlier work
[2] = Table 3, 1 μM, read-out: % rotamase inhib. at 1 μM
[3] = Table 2, 1 μM (values marked *), read-out: % inhib. at 1 μM*
[4] = Table 4, 1 μM, read-out: % rotamase inhib. at 1 μM

FKBP12, sequence (P62942 whole entry, species assumed): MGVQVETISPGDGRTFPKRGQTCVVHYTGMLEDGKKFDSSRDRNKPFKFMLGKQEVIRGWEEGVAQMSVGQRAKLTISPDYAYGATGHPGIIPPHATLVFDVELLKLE

CC(C)(C)C(=O)C(=O)N1CCC[C@H]1COC(=O)N(CCCc1ccccc1)CCCc1cccnc1 [Example 1, N-Trimethylpyruvyl-L-pyrrolidinylmethyl-[N',N'-3-(3-pyridyl)propyl-3-phenylpropylamino]carbamate]
inhibition at 10 µM (FKBP12; Table 1): 93%

COc1cc(C(F)(F)C(=O)N2CCC[C@H]2COC(=O)N(CCCc2ccc(C(=O)OCc3ccccc3)cc2)CCCc2cccnc2)cc(OC)c1OC [Example 36, N-(3,4,5-Trimethoxyphenyl)-difluoroacetyl-L-pyrrolidinylmethyl-[N',N'-3-(3-pyridyl)propyl-3-(4-benzyloxycarbonylphenyl)propylamino]carbamate]
inhibition at 1 µM (FKBP12; [2]): 77%

COc1cc(C(=O)C(=O)N2CCC[C@H]2COC(=O)N(CCCc2cccnc2)CCc2ccccc2)cc(OC)c1OC [Example 12, N-(3,4,5-Trimethoxyphenyl)oxalyl-L-pyrrolidinylmethyl-[N',N'-3-(3-pyridyl)propyl-2-phenylethylamino]carbamate]
inhibition at 10 µM (FKBP12; Table 2): 80%

COc1cc(C(F)(F)C(=O)N2CCCCC2COC(=O)N(CCCc2cccnc2)CCc2ccccc2)cc(OC)c1OC (racemic) [Example 42, N-(3,4,5-Trimethoxyphenyl)-difluoroacetyl-(±)-piperidinylmethyl-[N',N'-3-(3-pyridyl)propyl-2-phenylethylamino]carbamate]
inhibition at 1 µM (FKBP12; [3]): 1%

COc1cc(C(F)(F)C(=O)N2CCC[C@H]2COC(=O)N(CCCCc2ccccc2)CCCc2cccnc2)cc(OC)c1OC [Example 26, N-(3,4,5-Trimethoxyphenyl)-difluoroacetyl-L-pyrrolidinylmethyl-[N',N'-3-(3-pyridyl)propyl-4-phenylbutylamino]carbamate]
inhibition at 10 µM (FKBP12; Table 2): 99% | Ki (FKBP12; Table 2): 0.158 µM

COc1cc(C(F)(F)C(=O)N2CCC[C@H]2COC(=O)N(CCCCc2ccccc2)CCCCc2cccnc2)cc(OC)c1OC [Example 22, N-(3,4,5-Trimethoxyphenyl)-difluoroacetyl-L-pyrrolidinylmethyl-[N',N'-4-(3-pyridyl)butyl-4-phenylbutylamino]carbamate]
inhibition at 1 µM (FKBP12; [3]): 83% | Ki (FKBP12; Table 2): 0.271 µM

COc1cc(C(=O)C(=O)N2CCC[C@H]2COC(=O)N(CCCc2ccccc2)CCCc2cccnc2)cc(OC)c1OC [Example 7, N-(3,4,5-Trimethoxyphenyl)oxalyl-L-pyrrolidinylmethyl-[N',N'-3-(3-pyridyl)propyl-3-phenylpropylamino]carbamate]
inhibition at 10 µM (FKBP12; Table 2): 100% | Ki (FKBP12; Table 2): 0.447 µM

COc1cc(C(F)(F)C(=O)N2CCC[C@H]2CCC(=O)N(CCCc2ccccc2)CCCc2cccnc2)cc(OC)c1OC [Example 45, N,N-(3-Phenylpropyl)-3-(3-pyridyl)propyl-2-[(S)-N'-(3,4,5-Trimethoxyphenyl)-difluoroacetyl-2-pyrrolidinyl]propionamide]
inhibition at 1 µM (FKBP12; [4]): 42%

COc1cc(CCCN(CCCc2cccnc2)C(=O)OC[C@@H]2CCCN2C(=O)C(=O)c2cc(OC)c(OC)c(OC)c2)cc(OC)c1OC [Example 18, N-(3,4,5-Trimethoxyphenyl)oxalyl-L-pyrrolidinylmethyl-[N',N'-3-(3-pyridyl)propyl-3-(3,4,5-trimethoxyphenyl)propylamino]carbamate]
inhibition at 1 µM (FKBP12; [2]): 68%

COc1cc(C(=O)C(=O)N2CCC[C@H]2COC(=O)N(CCCCc2cccnc2)Cc2ccccc2)cc(OC)c1OC [Example 16, N-(3,4,5-Trimethoxyphenyl)oxalyl-L-pyrrolidinylmethyl-[N',N'-4-(^3-pyridyl)butyl-benzylamino]carbamate]
inhibition at 1 µM (FKBP12; [3]): 18%

COc1ccc(CCCN(CCCc2cccnc2)C(=O)OC[C@@H]2CCCN2C(=O)C(F)(F)c2cc(OC)c(OC)c(OC)c2)cc1 [Example 38, N-(3,4,5-Trimethoxyphenyl)-difluoroacetyl-L-pyrrolidinylmethyl-[N',N'-3-(3-pyridyl)propyl-3-(4-methoxyphenyl)propylamino]carbamate]
inhibition at 1 µM (FKBP12; [2]): 95%

CC(C)(C)C(=O)C(=O)N1CCC[C@H]1COC(=O)N(Cc1ccccc1)Cc1ccccc1 [Example 2, N-Trimethylpyruvyl-L-pyrrolidinylmethyl-[N',N'-dibenzylamino]carbamate]
inhibition at 10 µM (FKBP12; Table 1): 27%

COc1cc(C(F)(F)C(=O)N2CCCC[C@H]2CCC(=O)N(CCCc2ccccc2)CCCc2cccnc2)cc(OC)c1OC [Example 44, N,N-(3-Phenylpropyl)-3-(3-pyridyl)propyl-2-[(S)-N'-(3,4,5-Trimethoxyphenyl)-difluoroacetyl-2-piperidinyl]propionamide]
inhibition at 1 µM (FKBP12; [4]): 0%

COc1cc(C(F)(F)C(=O)N2CCC[C@H]2COC(=O)N(CCCc2ccccc2)CCCc2cccnc2)cc(OC)c1OC [Example 23, N-(3,4,5-Trimethoxyphenyl)-difluoroacetyl-L-pyrrolidinylmethyl-[N',N'-3-(3-pyridyl)propyl-3-phenylpropylamino]carbamate]
inhibition at 10 µM (FKBP12; Table 2): 98% | Ki (FKBP12; Table 2): 0.113 µM

COc1cc(C(=O)C(=O)N2CCC[C@H]2COC(=O)N(CCCCc2cccnc2)CCc2ccccc2)cc(OC)c1OC [Example 15, N-(3,4,5-Trimethoxyphenyl)oxalyl-L-pyrrolidinylmethyl-[N',N'-4-(3-pyridyl)butyl-2-phenylethylamino]carbamate]
inhibition at 10 µM (FKBP12; Table 2): 82%

COc1cc(C(F)(F)C(=O)N2CCC[C@H]2COC(=O)N(CCCc2ccc(C(=O)O)cc2)CCCc2cccnc2)cc(OC)c1OC [Example 35, N-(3,4,5-Trimethoxyphenyl)-difluoroacetyl-L-pyrrolidinylmethyl-[N',N'-3-(3-pyridyl)propyl-3-(4-carboxyphenyl)propylamino]carbamate]
inhibition at 1 µM (FKBP12; [2]): 94%

COc1cc(C(=O)C(=O)N2CCCCC2COC(=O)N(CCCc2ccccc2)CCCc2cccnc2)cc(OC)c1OC (racemic) [Example 19, N-(3,4,5-Trimethoxyphenyl)oxalyl-(±)-piperidinylmethyl-[N',N'-3-(3-pyridyl)-propyl-3-phenylpropylamino]carbamate]
inhibition at 10 µM (FKBP12; Table 2): 11%

COc1ccc(CCN(CCCc2cccnc2)C(=O)OC[C@@H]2CCCN2C(=O)C(F)(F)c2cc(OC)c(OC)c(OC)c2)cc1OC [Example 33]
inhibition at 1 µM (FKBP12; [2]): 96%

C=CC[C@@H]1/C=C(\C)C[C@H](C)C[C@H](OC)[C@H]2O[C@@](O)(C(=O)C(=O)N3CCCC[C@H]3C(=O)O[C@H](/C(C)=C/[C@@H]3CC[C@@H](O)[C@H](OC)C3)[C@H](C)[C@@H](O)CC1=O)[C@H](C)C[C@@H]2OC [FK506]
neurotrophic properties [1]: possess neurotrophic properties in vitro and in vivo | inhibition of growth of HIV-infected cells (HIV-infected cells): inhibits the growth of HIV-infected cells

CC(C)(C)C(=O)C(=O)N1CCC[C@H]1COC(=O)NCCCc1ccccc1 [Example 6, N-Trimethylpyruvyl-L-pyrrolidinylmethyl-[N'-3-phenylpropylamino]carbamate]
inhibition at 10 µM (FKBP12; Table 1): 32%

COc1cccc(CCN(CCCc2cccnc2)C(=O)OC[C@@H]2CCCN2C(=O)C(F)(F)c2cc(OC)c(OC)c(OC)c2)c1 [Example 32, N-(3,4,5-Trimethoxyphenyl)-difluoroacetyl-L-pyrrolidinylmethyl-[N',N'-3-(3-pyridyl)propyl-2-(3-methoxyphenyl)ethylamino]carbamate]
inhibition at 1 µM (FKBP12; [2]): 93%

COc1cc(C(F)(F)C(=O)N2CCCCC2COC(=O)N(CCCCc2ccccc2)CCCc2cccnc2)cc(OC)c1OC (racemic) [Example 43]
inhibition at 1 µM (FKBP12; [3]): 0%

COc1cc(C(=O)C(=O)N2CCC[C@H]2COC(=O)N(CCCCc2cccnc2)CCCc2ccccc2)cc(OC)c1OC [Example 14, N-(3,4,5-Trimetboxyphenyl)oxalyl-L-pyrrolidinylmethyl-[N',N'-4-(3-pyridyl)butyl-3-phenylpropylamino]carbamate]
inhibition at 1 µM (FKBP12; [3]): 54%
